This is an account of results in patent US5480870A, “Tumor growth-inhibiting somatostatin analogues, pharmaceutical compositions containing them and process for preparing same” (Biosignal Kutato-Fejlesztokft, priority 1991, dated 1996).

Assay [1] has as its system rat hypophysis (GH release). The assay can be described thus: Assay of the growth hormone (GH): GHRH-elicited GH release, superfusion method. As to conditions: percentage of decrease (-) or increase (+) in GH amount released by GHRH. Type of assay: cell-based. As for the experimental part:
The release or inhibition, respectively, of the release of GH were measured on rat hypophysis by using the superfusion method [Vigh et al.: Peptides 5, 241 (1984)]. As control, the GH amount was considered which was released by the GH releasing hormone (GHRH) given in the same dose as the sample. The activity of the somatostatin analogue was expressed as the percentage of decrease or increase, respectively, in the GH amount released by GHRH (Table II).

Assay [2] deals with HT 29: tumour cell line of human colon origin. The assay can be described thus: Assay of the inhibition of cell division, HT 29. Type of assay: cell-based. On the procedure: (§1) The incorporation of [^3 H]-thymidine to tumour cells of various origin and measurement of the cell count were carried out according to the method of Keri et al. [Tumor Biology 9, 315 (1988)]. The biological activity of the analogues was expressed as the percentage of inhibition of the labelled thymidine incorporation or increase in the count of untreated cells used as control (Table III).

The test system of assay [3] is MCF 7: tumour cell line of human breast origin. The assay can be described thus: Assay of the inhibition of cell division, MCF 7. It counts as cell-based. On the procedure:
as §1

The subject of assay [4] is tyrosine kinase (HT 29 cells). The experiment in a line: Assay of the tyrosine kinase activity, HT 29 cells. Type of assay: cell-based, human. On the procedure:
The tyrosine kinase activity was also determined according to the method of Keri et al. [Tumor Biology 9, 315 (1988)]. The activity of the analogues was characterized on the basis of their inhibitory effect in comparison to the incorporation of ^32 p isotope to untreated cells used as control (Table IV).

On to “D-Phe-Cys-Tyr-D-Trp-Lys-Val-Cys-Thr-NH2 [Example 2]”, for which, in assay [1], the “Change of GH release” value was -93%. In addition, the “Inhibition (%) of cell division” value is 27% in assay [2] (HT 29, dose 20 μg) and 45% in assay [3] (MCF 7, dose 20 μg). Besides, the “Inhibition (%) of tyrosine kinase activity” value in assay [4] (HT 29, dose 1 μg, 32P incorporation vs untreated cells) is reported as 35%; in assay [4] (HT 29, dose 10 μg), 22%.

For the substance “D-Phe-Tyr-Tyr-Aa-Lys-Val-Phe-Trp-NH2 [Example 6]”, the “Change of GH release” value in assay [1] is reported as “+26%”. Also, in assay [3] (MCF 7, dose 40 μg), the “Inhibition (%) of cell division” value is on record as 48%.

As to “Ac-Sar-Ala-Tyr-Tyr-Aa-Lys-Val-Phe-Trp-NH2 [Example 7]”, the “Change of GH release” value in assay [1] was -20%. Also, the “Inhibition (%) of cell division” value was 28% in assay [2] (HT 29, dose 10 μg) and 24% in assay [3] (MCF 7, dose 20 μg). Also, the “Inhibition (%) of tyrosine kinase activity” value in assay [4] (HT 29, dose 10 μg) was 17%; in assay [4] (HT 29, dose 30 μg), 23%.
